Where a name gives a salt, the structure may show the parent alone. Read-outs that look alike come from different tables or passages of the source.
What was measured:
Assay in all cases: Microculture tetrazolium assay
Assay type in all cases: cell-based
[1] = system: T47D; conditions: Homo sapiens
[2] = system: SKVLB; conditions: for VLB/OV3: IC50 ratio SKVLB/SKOV3; for IC50: SKVLB
[3] = system: LOX; conditions: read-out: IC50
[4] = system: HT29; conditions: Homo sapiens, HT-29, HT29; read-out: IC50
[5] = system: SKOV3; conditions: Homo sapiens, SK-OV-3, SKOV3; read-out: IC50

IC50 ([1]; read-out: IC50)	IC50 [3]	IC50 [4]	IC50 [5]	IC50 ([2]; read-out: IC50)	SMILES	VLB/OV3 [2]	IC50 [2]	IC50 [1]
47100 nM	76000 nM	62600 nM	62300 nM	100000 nM	CC1(C2CC3=C(CO2)C(=O)c2cc4ccccc4c(O)c2C3=O)OCCCO1 (centres unmarked) [BCH-1109]			
146 nM	314 nM	2660 nM	447 nM	1940 nM	CC(=O)[C@@H]1Cc2c(O)c3c(c(O)c2[C@@H](O[C@@H]2O[C@@H](C)[C@@H](O)[C@@H](NC(=O)C(F)(F)F)C2I)O1)C(=O)c1ccccc1C3=O (some centres unmarked) [BCH-2063]	4.34		
9480 nM	4830 nM	6930 nM	4580 nM	11200 nM	CC(=O)C1Cc2c(O)c3c(c(O)c2C(O[C@H]2C[C@H](NC(=O)C(F)(F)F)[C@H](O)[C@H](C)O2)O1)C(=O)c1ccccc1C3=O (mixture of isomers) [BCH-1131, (1'S,1S,3R) and (1'S,1R,3S)-Methyl-[5,12-dihydroxy-1-(2',3',6'-trideoxy-3'-trifluoroacetamido-4'-hydroxy-L-lyxohexopyranose)-6,11-dioxo-3,4,6,11,tetrahydroanthraceno-(2,3-C)pyran-3-yl]ketone]	2.45		
5390 nM	2990 nM	5180 nM	2320 nM	7660 nM	CC(=O)O[C@@H]1[C@H](C)O[C@@H](OC2OC(C(=O)CO)CC3=C2C(=O)c2cc4ccccc4c(O)c2C3=O)C[C@@H]1OC(C)=O (some centres unmarked) [BCH-1626]	3.30		
735 nM	201 nM	99.5 nM	245 nM	470 nM	CC[C@H]1Cc2c(O)c3c(c(O)c2[C@H](O[C@H]2C[C@H](N)[C@H](O)[C@H](C)O2)O1)C(=O)c1ccccc1C3=O [BCH-1633]	1.92		
31500 nM	23600 nM	10000 nM	30500 nM	42100 nM	CC(=O)O[C@@H]1[C@H](C)O[C@@H](O[C@H]2O[C@H](C(C)=O)CC3=C2C(=O)c2cc4ccccc4c(O)c2C3=O)C[C@@H]1OC(C)=O [BCH-1165, (1'S,1R,3S)-methyl-(6-hydroxy-1-(2',3',4',6'-tetradeoxy-3',4'-diacetyl-L-lyxohexopyranose)-5,12-dioxo-3,4,5,12-tetrahydroanthraceno-[2,3-c]pyran-3-yl) ketone]	1.38		
490 nM	226 nM	163 nM	392 nM	407 nM	C[C@@H]1O[C@@H](O[C@H]2O[C@H](COc3ccccc3)Cc3c(O)c4c(c(O)c32)C(=O)c2ccccc2C4=O)C[C@H](N)[C@@H]1O (mixture of isomers) [BCH-2058, (1'S,1R,3S) and (1'S,1S,3R)-5,12-dihydroxy-3-phenyloxymethyl-1-(2',3',6'-trideoxy-3'-amino-L-lyxohexopyranose)-1,2,3,4-tetrahydro-(2-oxygen)-naphthacene-6,11-dione-hydrochloride]	1.04		
1460 nM	1750 nM	980 nM	1240 nM	3570 nM	C[C@@H]1O[C@@H](O[C@@H]2OC=CC3=C2C(=O)c2cc4ccccc4c(O)c2C3=O)C[C@H](NC(=O)C(F)(F)F)[C@@H]1O [BCH-2002]	2.88		
> 100000 nM	> 100000 nM	> 100000 nM	> 100000 nM	> 100000 nM	CC(=O)C1CC2=C(C(=O)c3cc4ccccc4c(O)c3C2=O)C(O)S1 (stereo not drawn) [BCH-1167, Trans-3-aceto-1,6-hydroxy-1,2,3,4,5,12-hexahydro-2-(sulfur)naphthacene-5,12-dione and cis-3-aceto-1,6-hydroxy-1,2,3,4,5,12-hexahydro-2-(sulfur)naphthacene-5,12-dione]			
3600 nM	2100 nM	3000 nM	2400 nM	4700 nM	CCC1COC(OC2CC(NC(=O)C(F)(F)F)C(O)C(C)O2)C2=C1C(=O)c1c(cc3ccccc3c1O)C2=O [BCH-2080, (1'S,1S,4S)-5,12-Dioxo-4-ethyl-6-hydroxy-1-(2',3',6'-trideoxy-3'-trifluoroacetamido-L-lyxohexopyranose)-3,4,5,12-tetrahydroanthraceno-[2,3-c]-pyran]			
3620 nM	2490 nM	3680 nM	7020 nM	1600 nM	C[C@@H]1O[C@@H](OC2OC(CC(=O)C3CC3)CC3=C2C(=O)c2cc4ccccc4c(O)c2C3=O)C[C@H](NC(=O)C(F)(F)F)C1O (mixture of isomers) [BCH-2133, (1'S,1S,3R) and (1'S,1R,3S)-cyclopropyl-(6-hydroxy-1-((2',3',6'-trideoxy-3'-trifluoroacetamido-4'-hydroxy-L-arabino-hexopyranose)-5,10-dioxo-3,4,5,12-tetrahydronaphto-[2,3-c]pyran-3-yl)methylene)]	0.23		
412 nM	38.4 nM	304 nM	70.6 nM	67.2 nM	CC(C)[C@@H]1Cc2c(O)c3c(c(O)c2[C@@H](O[C@H]2C[C@H](N)[C@H](O)[C@H](C)O2)O1)C(=O)c1ccccc1C3=O [BCH-2050, (1'S,1R,3S)-5,12-Dixydroxy-3-isopropy-1-(2',3',6'-trideoxy-3'-amino 'L-lyxohexopyranose)-1,2,3,4-tetrahydro-(2-oxygen)-naphtacene-6,11-dione-hydrochloride]	0.95		
263 nM	102 nM	77.3 nM	275 nM	472 nM	CC(C)[C@H]1Cc2c(O)c3c(c(O)c2[C@H](O[C@H]2C[C@H](N)[C@H](O)[C@H](C)O2)O1)C(=O)c1ccccc1C3=O [BCH-2049, (1'S,1S,3R)-5,12-trihydroxy-3-isopropyl-1-(2',3',6'-trideoxy-3'-amino-L-lyxohexopyranose)-1,2,3,4-tetrahydro-(2-oxygen)-naphthacene-6,11-dione-hydrochloride]	1.72		
2000 nM	1350 nM	871 nM	1680 nM	2740 nM	CC(=O)[C@@H]1CC2=C(C(=O)c3cc4ccccc4c(O)c3C2=O)[C@@H](O[C@H]2C[C@H](NC(=O)C(F)(F)F)[C@H](O)[C@H](C)O2)S1 [BCH-1641]	1.63		
693 nM	148 nM	586 nM	310 nM	14100 nM	CC(=NO)[C@H]1Cc2c(O)c3c(c(O)c2[C@H](O[C@H]2C[C@H](N)[C@H](O)[C@H](C)O2)O1)C(=O)c1ccccc1C3=O [BCH-2074, (1'S, 1S,3R)-3-(Oximoethyl)-5,12-dihydroxy-1(2,3,6-trideoxy-3-amino-L-lyxohexolpyranose)-6,11-dioxo-3,4,6,11-tetrahydro-1H-anthra[2,3-C]pyran hydrochloride]	45.48		
2570 nM	> 100000 nM	4170 nM	1160 nM	2700 nM	CC[C@@H]1CC2=C(C(=O)c3cc4ccccc4c(O)c3C2=O)[C@@H](O)O1 (relative stereo) [BCH-1162, (trans)-1,6-Dihydroxy-3-ethyl-1,2,3,4-tetrahydro-(2-oxygen) naphtacene-5,12-dione]	2.33		
13500 nM	9250 nM	10700 nM	12700 nM	28500 nM	C[C@@H]1O[C@@H](O[C@H]2O[C@H](c3ccccc3)CC3=C2C(=O)c2cc4ccccc4c(O)c2C3=O)C[C@H](NC(=O)C(F)(F)F)[C@@H]1O [BCH-2010, (1S, 1R, 3S)-3-(6-hydroxy-1-(2',3',6'-trideoxy-3'-trifluoroacetamido-4'-hydroxy-L-lyxohexopyranose)-5,12-dioxo-3,4,5,12-tetrahydroanthraceno-[2,3-c]pyran-3-yl)benzene]	2.24		

SMILES	IC50 ([1]; read-out: IC50)	IC50 [3]	IC50 [4]	IC50 [5]	IC50 ([2]; read-out: IC50)	VLB/OV3 [2]	IC50 [2]	IC50 [1]
CC(=O)[C@@H]1CC2=C(C(=O)c3cc4ccccc4c(O)c3C2=O)[C@@H](O[C@@H]2O[C@@H](C)[C@@H](O)[C@@H](O)C2I)O1 (some centres unmarked) [BCH-1990]	3880 nM	3010 nM	1100 nM	2100 nM		2.64	5540 nM	
CC(=O)[C@H]1CC2=C(C(=O)c3cc4ccccc4c(O)c3C2=O)[C@H](O[C@@H]2O[C@@H](C)[C@@H](O)[C@@H](NC(=O)C(F)(F)F)C2I)O1 (some centres unmarked) [BCH-2064]	878 nM	10800 nM	440 nM	1450 nM	3450 nM	2.38		
C[C@@H]1O[C@@H](OC2OC(C#N)Cc3c(O)c4c(c(O)c32)C(=O)c2ccccc2C4=O)C[C@H](NC(=O)C(F)(F)F)[C@@H]1O (mixture of isomers) [BCH-2055, (1'S,1R,3S) and (1'S,1S,3R)(5,12-Dihydroxy-1-(2',3',6'-trideoxy-3'-trifluoroacetamido-4'-hydroxy-L-lyxohexopyranose)-6,11-dioxo-3,4,5,12-tetrahydroanthraceno-[2,3-c]pyran-3-yl)nitrile]		1130 nM	471 nM	898 nM	2560 nM	2.85		3510 nM
CCOC(=O)C1CC2=C(CO1)C(=O)c1c(c(OC(C)=O)c3ccccc3c1OC(C)=O)C2=O (centres unmarked) [BCH-655, Ethyl[6,11-diacetoxy-B,12-dioxo-3,4,5,12-tetrahydroanthraceno (2,3-c)pyran-3-yl]formate]	> 100000 nM	> 100000 nM	> 100000 nM	> 100000 nM	> 100000 nM			
